Assay results: patent US20230167062A1, “AMIDE COMPOUND CONTAINING SUBSTITUTED ACETOPHENONE STRUCTURAL FRAGMENTS AND PREPARATION METHOD AND APPLICATION THEREOF” (SHENYANG SINOCHEM AGROCHEMICALS R&D CO., LTD., priority 2019, published 2023)

How the values were obtained:
[1] = test system: cucumber anthracnose; assay: In vivo protection activity against cucumber anthracnose (live pot determination); conditions: dose of 400 ppm
Experimental: (§1) The test of in vivo protection effect is conducted on various fungal diseases of plants through samples of the compounds of the present invention. The determination results of the fungal activity are shown in the following embodiments.
(§2) The determination method is as follows: the to-be-determined sample of the compound of general formula I obtained above was dissolved with a small amount of solvent (the type of the solvent is, for example, acetone, methanol, DMF, etc., and is selected according to the dissolving ability to the sample; and the volume ratio of the solvent amount to the liquid spray amount is equal to or less than 0.05) by a live pot determination method, and diluted with water containing 0.1% Tween 80 to prepare to-be-determined liquid with required concentration. On a crop sprayer, the to-be-determined liquid was sprayed onto disease host plants (the host plants are standard potted seedlings cultivated in a greenhouse), and the disease was inoculated after 24 hours. According to the characteristics of the disease, the diseased plants that need to be cultivated under temperature control and moisturizing were inoculated and then placed in an artificial climate chamber for cultivation. […] After full onset through control (usually one week), the disease prevention effect of the compound was evaluated.

[2] = test system: cucumber downy mildew; assay: In vivo protection activity against cucumber downy mildew (live pot determination); conditions: for control effects, Cucumber downy mildew: 400 ppm (Table 2); for control effects on cucumber downy mildew: dose of 400 ppm, spray, inoculated after 24 hours
Experimental: as §1, §2

[3] = test system: wheat powdery mildew; assay: In vivo protection activity against wheat powdery mildew (live pot determination); conditions: for control effects on wheat powdery mildew: dose of 400 ppm
Experimental: as §1, §2

[4] = test system: corn rust; assay: In vivo protection activity against corn rust (live pot determination); conditions: for control effects, Corn rust: 400 ppm (Table 4); for control effects on corn rust: dose of 400 ppm
Experimental: as §1, §2

[5] = test system: cucumber botrytis; assay: In vivo protection activity against cucumber botrytis (live pot determination); conditions: 200 ppm
Experimental: as §1, §2

[6] = test system: tomato botrytis; assay: In vivo protection activity against tomato botrytis (live pot determination)
Experimental: as §1, §2

| SMILES | control effects on cucumber anthracnose [1] | control effects, Cucumber downy mildew [2] | control effects on cucumber downy mildew [2] | control effects, Wheat powdery mildew ([3]; 400 ppm (Table 3)) | control effects on wheat powdery mildew [3] | control effects, Corn rust [4] | control effects on corn rust [4] | Control effects on cucumber botrytis (%) [5] | Control effects on tomato botrytis (%) ([6]; 25 ppm) | Control effects on tomato botrytis (%) ([6]; 100 ppm) | melting point | control effects, Wheat powdery mildew ([3]; 100 ppm (Table 3)) |
| --- | --- | --- | --- | --- | --- | --- | --- | --- | --- | --- | --- | --- |
| Cc1cc(OC(C)C)ccc1C(=O)C(C)(C)NC(=O)c1cccnc1C(F)(F)F [CK1] | 0% | 0 | 0% | 85 | 85% | 0 | 0% | 0% |  |  |  |  |
| Cc1cc(OC(C)C)ccc1C(=O)C(C)(C)NC(=O)c1cccnc1Cl [CK2] | 0% | 0 | 0% | 85 | 85% | 0 | 0% | 0% | 0% | 20% |  |  |
| Cc1cc(OC(C)C)ccc1C(=O)C(C)(C)NC(=O)c1cn(C)nc1C(F)(F)F [CK3] | 0% | 0 | 0% | 85 | 85% | 0 | 0% | 60% | 20% | 35% |  |  |
| Cc1cc(OC(C)C)ccc1C(=O)C(C)(C)NC(=O)c1c(C(F)(F)F)nn(C)c1Cl [CK4] | 0% | 0 | 0% | 75 | 75% | 0 | 0% | 25% | 0% | 0% |  |  |
| Cc1cc(OC(C)C)ccc1C(=O)C(C)(C)NC(=O)c1cccnc1C(F)F [Compound I-2] |  | 40 |  | 100 |  |  |  |  |  |  | 96.9 °C | 100 |
